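Cultured in 96-well plates, cells were exposed to test compound for 48 hours across five concentrations. GI50 marks 50% less growth. The concentration for full growth arrest is given as TGI.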
How the values were obtained:
Test in all cases: DTP human tumour cell line panel, 48 h
DLD-1 colon = system: DLD-1 colon
SN12C renal = system: SN12C renal
HCT-15 colon = system: HCT-15 colon
TK-10 renal = system: TK-10 renal
DMS 114 small cell lung = system: DMS 114 small cell lung
SK-MEL-2 melanoma = system: SK-MEL-2 melanoma
SF-295 CNS = system: SF-295 CNS
MOLT-4 leukemia = system: MOLT-4 leukemia
PC-3 prostate = system: PC-3 prostate
BT-549 breast = system: BT-549 breast

SMILES | TGI (DLD-1 colon) [µM] | TGI (SN12C renal) [µM] | TGI (HCT-15 colon) [µM] | TGI (TK-10 renal) [µM] | TGI (DMS 114 small cell lung) [µM] | TGI (SK-MEL-2 melanoma) [µM] | TGI (SF-295 CNS) [µM] | TGI (MOLT-4 leukemia) [µM] | GI50 (HCT-15 colon) [µM] | TGI (PC-3 prostate) [µM] | TGI (BT-549 breast) [µM] | GI50 (MOLT-4 leukemia) [µM] | GI50 (SF-295 CNS) [µM]
O=C1C2C3C=C4c5ccccc5N(c5ccccc5)C4([C@@H]2C(=O)N1c1ccc(F)cc1)[C@H]1C(=O)N(c2ccc(F)cc2)C(=O)[C@@H]31 (stereo partly drawn) | > 100 | > 100 | > 100 | > 100 | > 100 | > 100 | > 100 | > 100 |  |  |  |  | 
CSc1cc(C(C)(C)C)ccc1C(O)c1ccc(C(C)(C)C)cc1SC | 21.7 | 25.8 | 29.9 | 30.6 | 22.5 | 34.1 | 22.6 | 21.6 |  |  |  |  | 
N#CC1=C(c2ccccc2)OC2(N)OC(c3ccccc3)=C(C#N)C12C#N (stereo not drawn) | > 100 | > 100 | > 100 | > 100 | > 100 | > 100 | > 100 | > 100 |  |  |  |  | 
CC1OC(CC2C=CCc3c(O)c4c(c(O)c32)C(=O)c2ccccc2C4=O)CC(NC(=O)C(F)(F)F)C1O (stereo not drawn) | 20 | 18.2 | 55.9 | 10.9 | 26.8 | 30.2 | 18 | 22.5 |  |  |  |  | 
Cc1ccc(NC(=O)CCC(=O)C2Cc3ccccc3C2=O)cc1C (stereo not drawn) | > 100 | > 100 | > 100 | > 100 | > 100 | > 100 | > 100 | > 100 |  |  |  |  | 
CN(C)CCNC(=O)c1cccc2c1nc(-c1ccncc1)c1ccccc12 | 14.2 | 14.8 | 13.4 | 7.77 | 14.2 | 19.1 | 15.9 | > 100 |  |  |  |  | 
O=c1[nH]c(=O)n(C2OC(CO)C(O)C2O)cc1F (stereo not drawn) | > 100 | > 100 | > 72.5 | > 62.2 | > 100 | > 84.6 | > 100 | > 100 | 0.0207 | > 100 | > 100 | 0.0428 | 
C/C=C1/C(=Cc2[nH]c(C=c3[nH]/c(=C/C4=NC(=O)C(CC)=C4C)c(C)c3CCC(=O)O)c(CCC(=O)O)c2C)NC(=O)C1C (stereo not drawn) | > 50 | > 50 | > 50 | > 50 | > 50 | 20.3 | 18.5 | 37.2 |  |  |  |  | 
FC(F)(F)c1nc(Br)[nH]c1C(F)(F)F | > 100 | > 100 | > 100 | > 100 | > 100 | > 100 | > 100 | > 100 |  |  |  |  | 
O=C1c2ccccc2C(=O)c2sc(Nc3ccc([N+](=O)[O-])cc3)nc21 | 11.5 | 8.15 | 18.9 | 26.4 | 6.32 | 34.1 | 24.7 | 7.17 |  | 19.9 | 27.4 |  | 
NC(=O)c1ncn2c(=O)n(CCCl)nnc12 | 720 | 546 | 521 | 651 | 131 | 511 | 239 | 567 |  | 534 | 306 | 37.2 | > 68
